Experimental findings from PubChem BioAssay AID651816 (Broad Institute, 2012) are described below.

Several values for one entry are separate records, joined by “and”; a condition that tells them apart may be missing. Identical values can stand only once. Activity calls are given as the source filed them. No rule for the calls is given here.

Experiment [1] in a line: V. cholerae BH1578 luminescence activators, luxS cqsA deficient, dose response confirmation, dry powder (AID 651816). Conditions: V. cholerae BH1578 luxCDABE luminescence, 6 h; at 80 µM (top of the series).
Experiment [2] deals with V. cholerae BH1578 luxCDABE luminescence, 6 h. The description is as above.

As to `c1ccc(Cn2nnc(NCc3ccc(N4CCCC4)cc3)n2)cc1`, the activation in experiment [1] is 0.04% (inactive).

On to `CCn1nnnc1NCc1ccc(C(C)C)cc1`, for which, in experiment [2], the AC40 was 89.1 nM and 143 nM.

Regarding `O=C(Cc1ccc(-c2ccccc2)cc1)NC1CCC1`, in experiment [2], the AC40 is 510 nM.

As to `Cc1ccc(Cn2nnnc2NCc2ccc(N3CCCC3)cc2)cc1`, the activation in experiment [1] was 0.022% (inactive).

Consider `CCCCn1nnnc1NCc1ccc(N2CCCC2)cc1`, for which the AC40 in experiment [2] is 5660 nM.

On to `CCn1nnnc1NCc1ccc(N2CCCCC2)cc1`, for which the AC40 in experiment [2] was 121 nM.

As for `CCC(CC)NC(=O)Cc1ccc(-c2ccccc2)cc1`, the AC40 in experiment [2] is 5370 nM.

As for `CCn1nnnc1NCc1cccc(N2CCCC2)c1`, the AC40 in experiment [2] is 504 nM.

Consider `CCn1nnnc1NCc1cccc(OC)c1`, for which the activation in experiment [1] is 3.31% (inactive).

Consider `CCn1nnc(CCc2ccc(N3CCCC3)cc2)n1`, for which the activation in experiment [1] was 0.033% (inactive).

On to `CCn1nnc(NCc2ccc(C)cc2)n1`, for which the activation in experiment [1] is 0.015% (inactive).

Turning to `CCn1nccc1NCc1ccc(N2CCCC2)cc1`, in experiment [1], the activation is 0.056% (inactive).

As to `O=C(Cc1ccccc1Cl)NC1CCCC1`, the activation in experiment [1] was -0.009% (inactive).

In the case of `O=C(Cc1ccc(-c2ccccc2)cc1)NC1CCCC1`, the AC40 in experiment [2] is 409 nM and 756 nM.

For the compound `CCc1ccccc1NCc1ccc(N2CCCC2)cc1`, the activation in experiment [1] is 0.047% (inactive).

`O=C(Cc1ccc(-c2ccccc2)cc1)NC1CCCCC1`: in experiment [1], the activation is 7.99% (inactive).

Consider `O=C(Cc1cccc(F)c1)NC1CCCC1`, for which the activation in experiment [1] was 0.665% (inactive).

`CCCn1nnnc1NCc1ccc(C(C)C)cc1`: in experiment [2], the AC40 is 793 nM.

Consider `CCn1nccc1/N=C/c1ccc(N2CCCC2)cc1`, for which the activation in experiment [1] is 0.02% (inactive).

In the case of `CC(C)c1ccc(CNc2nnnn2C)cc1`, in experiment [2], the AC40 is 3260 nM.

Take `CS(=O)(=O)c1ccc(CC(=O)NC2CCCC2)cc1`: in experiment [1], the activation was -0.008% (inactive).

With `O=C(Cc1ccccc1OC(F)(F)F)NC1CCCC1`, the activation in experiment [1] was -0.008% (inactive).

Turning to `CCn1nnnc1CCc1ccc(N2CCCC2)cc1`, the AC40 in experiment [2] was 1680 nM.

Consider `CCC(C)NC(=O)Cc1ccc(-c2ccccc2)cc1` (stereo not given), for which the AC40 in experiment [2] is 4820 nM.

As for `CCn1nnnc1NCc1ccc(N2CCCC2)cc1`, the AC40 in experiment [2] was 20.9 nM.

Turning to `c1ccc(Cn2nnnc2NCc2ccc(N3CCCC3)cc2)cc1`, the activation in experiment [1] is 0.055% (inactive).

For the compound `Cc1ccccc1CC(=O)NC1CCCC1`, in experiment [1], the activation is 0.039% (inactive).

On to `COc1ccc(CC(=O)NC2CCCC2)cc1`, for which the activation in experiment [1] was 0.353% (inactive).

`c1ccc(-n2nnnc2NCc2ccc(N3CCCC3)cc2)cc1`: the activation in experiment [1] is 0.051% (inactive).

Consider `O=C(Cc1ccccc1C(F)(F)F)NC1CCCC1`, for which the activation in experiment [1] was -0.032% (inactive).

Consider `Fc1ccc(Cn2nnnc2NCc2ccc(N3CCCC3)cc2)cc1`, for which, in experiment [1], the activation is 0.053% (inactive).

In the case of `CC(C)NC(=O)Cc1ccc(-c2ccccc2)cc1`, in experiment [2], the AC40 is 6210 nM.

On to `CCCn1nnnc1NCc1ccccc1Cl`, for which the activation in experiment [1] was -0.011% (inactive).

As to `Cn1nnnc1NCc1ccc(N2CCCC2)cc1`, in experiment [2], the AC40 was 956 nM.

Take `CCn1nnnc1NCc1ccccc1N1CCCC1`: the activation in experiment [1] was -0.011% (inactive).

As to `CCCn1nnnc1NCc1ccc(N2CCCC2)cc1`, in experiment [2], the AC40 is 60.8 nM.

As to `O=C(Cc1ccccc1F)NC1CCCC1`, the activation in experiment [1] is 0.028% (inactive).

Regarding `O=C(NCc1ccc(-c2ccccc2)cc1)C1CCCC1`, in experiment [1], the activation was 0.19% (inactive).

In the case of `O=C(Cc1ccc(-c2ccccc2)cc1)NC1CCOCC1`, the AC40 in experiment [2] was 2890 nM.

On to `O=C(Cc1cccc(OC(F)(F)F)c1)NC1CCCC1`, for which the activation in experiment [1] was 0.099% (inactive).
